Data reported in ChEMBL document CHEMBL2440076, “New triarylpyrazoles as broad-spectrum anticancer agents: design, synthesis, and biological evaluation” (Eur J Med Chem, 2013).

Key:
Format in all cases: functional
NCI-H522 [1] = experiment: Growth inhibition of human NCI-H522 cells assessed as cell growth at 5X10'-5 M after 48 hrs by sulforhodamine B assay; settings: NCI-H522, 48 h, read-out: Activity
HCT-15 [2] = experiment: Growth inhibition of human HCT15 cells assessed as cell growth at 5X10'-8 M after 48 hrs by sulforhodamine B assay; settings: HCT-15, 48 h, read-out: Activity
U-251 = experiment: Growth inhibition of human U251 cells assessed as cell growth at 5X10'-7 M after 48 hrs by sulforhodamine B assay; settings: U-251, 48 h, read-out: Activity
ACHN = experiment: Growth inhibition of human ACHN cells assessed as cell growth at 5X10'-8 M after 48 hrs by sulforhodamine B assay; settings: read-out: Activity
MOLT-4 = experiment: Growth inhibition of human MOLT4 cells assessed as cell growth at 5X10'-6 M after 48 hrs by sulforhodamine B assay; settings: MOLT-4, 48 h, read-out: Activity
RXF 393 = experiment: Growth inhibition of human RXF393 cells assessed as cell growth at 5X10'-9 M after 48 hrs by sulforhodamine B assay; settings: RXF 393, 48 h, read-out: Activity
A549 [3] = experiment: Growth inhibition of human A549/ATCC cells assessed as cell growth at 5X10'-5 M after 48 hrs by sulforhodamine B assay; settings: A549, 48 h, read-out: Activity
HCT-116 = experiment: Growth inhibition of human HCT116 cells assessed as cell growth at 5X10'-8 M after 48 hrs by sulforhodamine B assay; settings: HCT-116, 48 h, read-out: Activity
SNB-75 [4] = experiment: Growth inhibition of human SNB75 cells assessed as cell growth at 5X10'-7 M after 48 hrs by sulforhodamine B assay; settings: SNB-75, 48 h, read-out: Activity
SN12C [5] = experiment: Growth inhibition of human SN12C cells assessed as cell growth at 5X10'-7 M after 48 hrs by sulforhodamine B assay; settings: read-out: Activity
MDA-MB-435 = experiment: Growth inhibition of human MDA-MB-435 cells assessed as cell growth at 5X10'-9 M after 48 hrs by sulforhodamine B assay; settings: MDA-MB-435, 48 h, read-out: Activity
SK-MEL-28 = experiment: Growth inhibition of human SK-MEL-28 cells assessed as cell growth at 5X10'-6 M after 48 hrs by sulforhodamine B assay; settings: SK-MEL-28, 48 h, read-out: Activity
HCT-15 [6] = experiment: Growth inhibition of human HCT15 cells assessed as cell growth at 5X10'-9 M after 48 hrs by sulforhodamine B assay; settings: HCT-15, 48 h, read-out: Activity
SK-MEL-2 [7] = experiment: Growth inhibition of human SK-MEL-2 cells assessed as cell growth at 5X10'-5 M after 48 hrs by sulforhodamine B assay; settings: SK-MEL-2, 48 h, read-out: Activity
MDA-MB-231 = experiment: Growth inhibition of human MDA-MB-231 cells assessed as cell growth at 5X10'-6 M after 48 hrs by sulforhodamine B assay; settings: MDA-MB-231, 48 h, read-out: Activity
LOX IMVI = experiment: Growth inhibition of human LOXIMVI cells assessed as cell growth at 5X10'-5 M after 48 hrs by sulforhodamine B assay; settings: read-out: Activity
T47D = experiment: Growth inhibition of human T47D cells assessed as cell growth at 5X10'-9 M after 48 hrs by sulforhodamine B assay; settings: read-out: Activity
NCI-H460 = experiment: Growth inhibition of human NCI-H460 cells assessed as cell growth at 5X10'-9 M after 48 hrs by sulforhodamine B assay; settings: NCI-H460, 48 h, read-out: Activity
OVCAR-4 [8] = experiment: Growth inhibition of human OVCAR4 cells assessed as cell growth at 5X10'-7 M after 48 hrs by sulforhodamine B assay; settings: OVCAR-4, 48 h, read-out: Activity
NCI-H522 [9] = experiment: Growth inhibition of human NCI-H522 cells assessed as cell growth at 5X10'-8 M after 48 hrs by sulforhodamine B assay; settings: NCI-H522, 48 h, read-out: Activity
SK-MEL-2 [10] = experiment: Growth inhibition of human SK-MEL-2 cells assessed as cell growth at 5X10'-6 M after 48 hrs by sulforhodamine B assay; settings: SK-MEL-2, 48 h, read-out: Activity
SK-MEL-5 = experiment: Growth inhibition of human SK-MEL-5 cells assessed as cell growth at 5X10'-7 M after 48 hrs by sulforhodamine B assay; settings: SK-MEL-5, 48 h, read-out: Activity
SR = experiment: Growth inhibition of human SR cells assessed as cell growth at 5X10'-6 M after 48 hrs by sulforhodamine B assay; settings: read-out: Activity
A549 [11] = experiment: Growth inhibition of human A549/ATCC cells assessed as cell growth at 5X10'-6 M after 48 hrs by sulforhodamine B assay; settings: A549, 48 h, read-out: Activity
BT-549 = experiment: Growth inhibition of human BT549 cells assessed as cell growth at 5X10'-5 M after 48 hrs by sulforhodamine B assay; settings: BT-549, 48 h, read-out: Activity
M14 = experiment: Growth inhibition of human M14 cells assessed as cell growth at 5X10'-9 M after 48 hrs by sulforhodamine B assay; settings: M14, 48 h, read-out: Activity
DU-145 [12] = experiment: Growth inhibition of human DU145 cells assessed as cell growth at 5X10'-7 M after 48 hrs by sulforhodamine B assay; settings: DU-145, 48 h, read-out: Activity
SN12C [13] = experiment: Growth inhibition of human SN12C cells assessed as cell growth at 5X10'-6 M after 48 hrs by sulforhodamine B assay; settings: read-out: Activity
SNB-75 [14] = experiment: Growth inhibition of human SNB75 cells assessed as cell growth at 5X10'-5 M after 48 hrs by sulforhodamine B assay; settings: SNB-75, 48 h, read-out: Activity
DU-145 [15] = experiment: Growth inhibition of human DU145 cells assessed as cell growth at 5X10'-9 M after 48 hrs by sulforhodamine B assay; settings: DU-145, 48 h, read-out: Activity
OVCAR-3 = experiment: Growth inhibition of human OVCAR3 cells assessed as cell growth at 5X10'-9 M after 48 hrs by sulforhodamine B assay; settings: OVCAR-3, 48 h, read-out: Activity
OVCAR-5 = experiment: Growth inhibition of human OVCAR5 cells assessed as cell growth at 5X10'-5 M after 48 hrs by sulforhodamine B assay; settings: OVCAR-5, 48 h, read-out: Activity
OVCAR-4 [16] = experiment: Growth inhibition of human OVCAR4 cells assessed as cell growth at 5X10'-9 M after 48 hrs by sulforhodamine B assay; settings: OVCAR-4, 48 h, read-out: Activity
NCI-H23 = experiment: Growth inhibition of human NCI-H23 cells assessed as cell growth at 5X10'-7 M after 48 hrs by sulforhodamine B assay; settings: NCI-H23, 48 h, read-out: Activity
SN12C [17] = experiment: Growth inhibition of human SN12C cells assessed as cell growth at 5X10'-9 M after 48 hrs by sulforhodamine B assay; settings: read-out: Activity
HOP-62 = experiment: Growth inhibition of human HOP62 cells assessed as cell growth at 5X10'-8 M after 48 hrs by sulforhodamine B assay; settings: HOP-62, 48 h, read-out: Activity
HL-60(TB) = experiment: Growth inhibition of human HL-60(TB) cells assessed as cell growth at 5X10'-6 M after 48 hrs by sulforhodamine B assay; settings: HL-60, 48 h, read-out: Activity

SMILES | growth at 50 µM (NCI-H522 [1]) [%] | growth at 0.05 µM (HCT-15 [2]) [%] | growth at 0.5 µM (U-251) [%] | growth at 0.05 µM (ACHN) [%] | growth at 5 µM (MOLT-4) [%] | growth at 0.005 µM (RXF 393) [%] | growth at 50 µM (A549 [3]) [%] | growth at 0.05 µM (HCT-116) [%] | growth at 0.5 µM (SNB-75 [4]) [%] | growth at 0.5 µM (SN12C [5]) [%] | growth at 0.005 µM (MDA-MB-435) [%] | growth at 5 µM (SK-MEL-28) [%] | growth at 0.005 µM (HCT-15 [6]) [%] | growth at 50 µM (SK-MEL-2 [7]) [%] | growth at 5 µM (MDA-MB-231) [%] | growth at 50 µM (LOX IMVI) [%] | growth at 0.005 µM (T47D) [%] | growth at 0.005 µM (NCI-H460) [%] | growth at 0.5 µM (OVCAR-4 [8]) [%] | growth at 0.05 µM (NCI-H522 [9]) [%] | further results
COc1cc(-c2nn(-c3cccc(NC(=O)c4cccc(C(F)(F)F)c4)c3)cc2-c2ccncc2)ccc1Cl | -24 | 96 | 88 | 103 | 23 | 99 | 9 | 96 | 79 | 92 | 96 | 34 | 98 | 6 | 9 | 5 | 92 | 100 | 81 | 92 | growth at 5 µM (SK-MEL-2 [10]): 8%; growth at 0.5 µM (SK-MEL-5): 86%; growth at 5 µM (SR): -3%; growth at 5 µM (A549 [11]): 19%; growth at 50 µM (BT-549): -1%; growth at 0.005 µM (M14): 95%; growth at 0.5 µM (DU-145 [12]): 92%; growth at 5 µM (SN12C [13]): 41%; growth at 50 µM (SNB-75 [14]): 8%; growth at 0.005 µM (DU-145 [15]): 98%; growth at 0.005 µM (OVCAR-3): 105%; growth at 50 µM (OVCAR-5): 31%; growth at 0.005 µM (OVCAR-4 [16]): 94%; growth at 0.5 µM (NCI-H23): 86%; growth at 0.005 µM (SN12C [17]): 97%; growth at 0.05 µM (HOP-62): 97%; growth at 5 µM (HL-60(TB)): 16%
O=C(Nc1cccc(-n2cc(-c3ccncc3)c(-c3ccc(Cl)c(O)c3)n2)c1)Nc1cc(C(F)(F)F)cc(C(F)(F)F)c1 | -82 | 93 | 49 | 96 | -5 | 95 | -80 | 102 | 81 | 72 | 98 | -85 | 98 | -77 | -68 | -95 | 97 | 101 | 65 | 102 | growth at 5 µM (SK-MEL-2 [10]): -28%; growth at 0.5 µM (SK-MEL-5): 62%; growth at 5 µM (SR): -11%; growth at 5 µM (A549 [11]): -33%; growth at 50 µM (BT-549): -90%; growth at 0.005 µM (M14): 104%; growth at 0.5 µM (DU-145 [12]): 80%; growth at 5 µM (SN12C [13]): 2%; growth at 50 µM (SNB-75 [14]): -75%; growth at 0.005 µM (DU-145 [15]): 106%; growth at 0.005 µM (OVCAR-3): 109%; growth at 50 µM (OVCAR-5): -89%; growth at 0.005 µM (OVCAR-4 [16]): 95%; growth at 0.5 µM (NCI-H23): 80%; growth at 0.005 µM (SN12C [17]): 96%; growth at 0.05 µM (HOP-62): 97%; growth at 5 µM (HL-60(TB)): 3%
O=C(Nc1cccc(-n2cc(-c3ccncc3)c(-c3ccc(Cl)c(O)c3)n2)c1)c1ccc(N2CCOCC2)c(C(F)(F)F)c1 | -2 | 99 | 94 | 99 | 32 | 105 | 4 | 97 | 72 | 97 | 93 | 5 | 94 | -36 | 8 | -53 | 97 | 103 | 112 | 94 | growth at 5 µM (SK-MEL-2 [10]): 34%; growth at 0.5 µM (SK-MEL-5): 93%; growth at 5 µM (SR): 18%; growth at 5 µM (A549 [11]): 39%; growth at 50 µM (BT-549): 36%; growth at 0.005 µM (M14): 96%; growth at 0.5 µM (DU-145 [12]): 96%; growth at 5 µM (SN12C [13]): 70%; growth at 50 µM (SNB-75 [14]): 8%; growth at 0.005 µM (DU-145 [15]): 98%; growth at 0.005 µM (OVCAR-3): 98%; growth at 50 µM (OVCAR-5): 71%; growth at 0.005 µM (OVCAR-4 [16]): 93%; growth at 0.5 µM (NCI-H23): 96%; growth at 0.005 µM (SN12C [17]): 98%; growth at 0.05 µM (HOP-62): 101%; growth at 5 µM (HL-60(TB)): 39%
